# Test results reported in patent publication US20220119354A1, “DIAMINO-SUBSTITUTED PYRIDINES AND PYRIMIDINES AS HERBICIDES” (FMC Corporation, priority 2019, published 2022).
# How the values were obtained:
# [1] = system: barnyardgrass (Echinochloa crus-galli); assay: Test A preemergence, barnyardgrass; assay type: in vivo; conditions: 0 to 100 scale, 0 is no effect, 100 is complete control
# Procedure, shortened: (§1)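 Steps: plant seeds in loam/sand; spray soil (pre) or seedlings at 1–2 leaves, 2–10 cm (post) with compound in solvent plus surfactant; keep in greenhouse ~10 d; score injury visually against untreated controls, 0–100.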
# [2] = system: ryegrass, Italian (Lolium multiflorum); assay: Test A preemergence, Italian ryegrass; assay type: in vivo; conditions: 0 to 100 scale, 0 is no effect, 100 is complete control
# Procedure, shortened: as §1
# [3] = system: barnyardgrass (Echinochloa crus-galli); assay: Test A postemergence, barnyardgrass; assay type: in vivo; conditions: Echinochloa crus-galli, post-emergence, 240 h, 0 to 100 scale, 0 no effect, 100 complete control, read-out: Plant response rating, Barnyardgrass; for pest or weed control at 125 g/ha: 125 g ai/ha; for pest or weed control at 500 g/ha: 500 g ai/ha
# Procedure, shortened: as §1
melting point [°C],SMILES,Barnyardgrass plant response rating ([1]; 125 g ai/ha),Barnyardgrass plant response rating ([1]; 500 g ai/ha),"Ryegrass, Italian plant response rating ([2]; 125 g ai/ha)","Ryegrass, Italian plant response rating ([2]; 500 g ai/ha)",pest or weed control at 125 g/ha [3] [%],pest or weed control at 500 g/ha [3] [%]
137 to 141,"C[C@@H](Nc1ncc(C(F)(F)F)c(N)n1)c1cc2c(F)cccc2s1 [Compound 61, N2-[(1R)-1-(4-fluorobenzo[b]thien-2-yl)ethyl]-5-(trifluoromethyl)-2,4-pyrimidinediamine]",80,90,40,100,80,100
–,"C[C@@H](Nc1ncc(C(F)(F)F)c(N)n1)c1cc2cccc(F)c2o1 [Compound 71, N2-[(1R)-1-(7-fluoro-2-benzofuranyl)ethyl]-5-(trifluoromethyl)-2,4-pyrimidinediamine]",70,100,20,80,30,100
–,"C[C@@H](Nc1ncc(C(F)(F)F)c(N)n1)c1cc2c(F)cccc2o1 [Compound 73, N2-[(1R)-1-(4-fluoro-2-benzofuranyl)ethyl]-5-(trifluoromethyl)-2,4-pyrimidinediamine]",90,100,100,100,60,100
–,"C[C@@H](Nc1ncc(C(F)(F)F)c(N)n1)c1cc2cccc(F)c2s1 [Compound 75, N2-[(1R)-1-(7-fluorobenzo[b]thien-2-yl)ethyl]-5-(trifluoromethyl)-2,4-pyrimidinediamine]",90,90,80,100,30,100
